Assay results as given in ChEMBL document CHEMBL3580659, “One-pot multicomponent synthesis of indole incorporated thiazolylcoumarins and their antibacterial, anticancer and DNA cleavage studies” (2015).

Tests used:
Type in all cases: functional
SK-MEL-5 [1] = test: Cytotoxicity against human SK-MEL-5 cells assessed as cell growth level at 100 uM after 48 hrs by sulforhodamine B assay
UACC-62 [2] = test: Cytotoxicity against human UACC62 cells assessed as cell growth level at 100 uM after 48 hrs by sulforhodamine B assay
CAKI-1 = test: Cytotoxicity against human CAKI-1 cells assessed as cell growth level at 100 uM after 48 hrs by sulforhodamine B assay
T47D = test: Cytotoxicity against human T47D cells assessed as cell growth level at 100 uM after 48 hrs by sulforhodamine B assay
NCI-H23 [3] = test: Cytotoxicity against human NCI-H23 cells assessed as cell growth level at 10 nM after 48 hrs by sulforhodamine B assay
SF-268 [4] = test: Cytotoxicity against human SF268 cells assessed as cell growth level at 10 nM after 48 hrs by sulforhodamine B assay
SK-MEL-5 [5] = test: Cytotoxicity against human SK-MEL-5 cells assessed as cell growth level at 10 nM after 48 hrs by sulforhodamine B assay
MOLT-4 = test: Cytotoxicity against human MOLT4 cells assessed as cell growth level at 100 nM after 48 hrs by sulforhodamine B assay
A549 = test: Cytotoxicity against human A549/ATCC cells assessed as cell growth level at 100 nM after 48 hrs by sulforhodamine B assay
COLO 205 [6] = test: Cytotoxicity against human COLO205 cells assessed as cell growth level at 100 nM after 48 hrs by sulforhodamine B assay
KM12 = test: Cytotoxicity against human KM12 cells assessed as cell growth level at 100 nM after 48 hrs by sulforhodamine B assay
SNB-75 [7] = test: Cytotoxicity against human SNB75 cells assessed as cell growth level at 100 nM after 48 hrs by sulforhodamine B assay
Malme-3M [8] = test: Cytotoxicity against human MALME-3M cells assessed as cell growth level at 100 nM after 48 hrs by sulforhodamine B assay
UACC-257 = test: Cytotoxicity against human UACC257 cells assessed as cell growth level at 100 nM after 48 hrs by sulforhodamine B assay
DU-145 [9] = test: Cytotoxicity against human DU145 cells assessed as cell growth level at 100 nM after 48 hrs by sulforhodamine B assay
K562 = test: Cytotoxicity against human K562 cells assessed as cell growth level at 1 uM after 48 hrs by sulforhodamine B assay
HCC 2998 [10] = test: Cytotoxicity against human HCC2998 cells assessed as cell growth level at 1 uM after 48 hrs by sulforhodamine B assay
HCT-116 = test: Cytotoxicity against human HCT116 cells assessed as cell growth level at 1 uM after 48 hrs by sulforhodamine B assay
COLO 205 [11] = test: Cytotoxicity against human COLO205 cells assessed as cell growth level at 10 uM after 48 hrs by sulforhodamine B assay
SF-268 [12] = test: Cytotoxicity against human SF268 cells assessed as cell growth level at 10 uM after 48 hrs by sulforhodamine B assay
SNB-75 [13] = test: Cytotoxicity against human SNB75 cells assessed as cell growth level at 10 uM after 48 hrs by sulforhodamine B assay
LOX IMVI = test: Cytotoxicity against human LOXIMVI cells assessed as cell growth level at 10 uM after 48 hrs by sulforhodamine B assay
Malme-3M [14] = test: Cytotoxicity against human MALME-3M cells assessed as cell growth level at 10 uM after 48 hrs by sulforhodamine B assay
UACC-62 [15] = test: Cytotoxicity against human UACC62 cells assessed as cell growth level at 10 uM after 48 hrs by sulforhodamine B assay
IGROV-1 = test: Cytotoxicity against human IGROV1 cells assessed as cell growth level at 10 uM after 48 hrs by sulforhodamine B assay
Malme-3M [16] = test: Cytotoxicity against human MALME-3M cells assessed as cell growth level at 1 uM after 48 hrs by sulforhodamine B assay
OVCAR-4 = test: Cytotoxicity against human OVCAR4 cells assessed as cell growth level at 1 uM after 48 hrs by sulforhodamine B assay
PC-3 = test: Cytotoxicity against human PC3 cells assessed as cell growth level at 1 uM after 48 hrs by sulforhodamine B assay
MDA-MB-231 [17] = test: Cytotoxicity against human MDA-MB-231/ATCC cells assessed as cell growth level at 10 uM after 48 hrs by sulforhodamine B assay
NCI-H23 [18] = test: Cytotoxicity against human NCI-H23 cells after 48 hrs by sulforhodamine B assay; settings: NCI-H23, 48 h
HCC 2998 [19] = test: Cytotoxicity against human HCC2998 cells after 48 hrs by sulforhodamine B assay; settings: HCC 2998, 48 h
SF-268 [20] = test: Cytotoxicity against human SF268 cells after 48 hrs by sulforhodamine B assay; settings: SF-268, 48 h
NCI-H322M = test: Cytotoxicity against human NCI-H322M cells assessed as cell growth level at 100 uM after 48 hrs by sulforhodamine B assay
HT-29 = test: Cytotoxicity against human HT-29 cells assessed as cell growth level at 100 uM after 48 hrs by sulforhodamine B assay
SK-MEL-2 = test: Cytotoxicity against human SK-MEL-2 cells after 48 hrs by sulforhodamine B assay; settings: SK-MEL-2, 48 h
DU-145 [21] = test: Cytotoxicity against human DU145 cells after 48 hrs by sulforhodamine B assay; settings: DU-145, 48 h
MDA-MB-231 [22] = test: Cytotoxicity against human MDA-MB-231/ATCC cells after 48 hrs by sulforhodamine B assay; settings: MDA-MB-231, 48 h
CCRF-CEM = test: Cytotoxicity against human CCRF-CEM cells assessed as cell growth level at 10 nM after 48 hrs by sulforhodamine B assay
RPMI-8226 = test: Cytotoxicity against human RPMI8226 cells assessed as cell growth level at 10 nM after 48 hrs by sulforhodamine B assay
[23] = read-out: LC50 (the source's name)
[24] = read-out: pLC50 (the source's name) (converted)

O=c1oc2ccccc2cc1-c1csc(N/N=C/c2c[nH]c3ccccc23)n1
Activity (SK-MEL-5 [1]): -46%
Activity (UACC-62 [2]): -27%
Activity (CAKI-1): -57%
Activity (T47D): -35%
Activity (NCI-H23 [3]): 86%
Activity (SF-268 [4]): 96%
Activity (SK-MEL-5 [5]): 96%
Activity (MOLT-4): 97%
Activity (A549): 92%
Activity (COLO 205 [6]): 115%
Activity (KM12): 98%
Activity (SNB-75 [7]): 90%
Activity (Malme-3M [8]): 94%
Activity (UACC-257): 88%
Activity (DU-145 [9]): 92%
Activity (K562): 100%
Activity (HCC 2998 [10]): 84%
Activity (HCT-116): 81%
Activity (COLO 205 [11]): 28.15%
Activity (SF-268 [12]): 14.73%
Activity (SNB-75 [13]): 15.44%
Activity (LOX IMVI): -52.19%
Activity (Malme-3M [14]): -10.02%
Activity (UACC-62 [15]): 42.96%
Activity (IGROV-1): 0.26%
Activity (Malme-3M [16]): 93%
Activity (OVCAR-4): 85%
Activity (PC-3): 84%
Activity (MDA-MB-231 [17]): -37.04%
GI50 (NCI-H23 [18]; read-out: GI50): 2.44 µM
LC50 (NCI-H23 [18]; read-out: LC50): > 100 µM
TGI (NCI-H23 [18]; read-out: TGI): 5.82 µM
GI50 (NCI-H23 [18]; read-out: pGI50 (converted)): 2.45 µM
LC50 (NCI-H23 [18]; read-out: pLC50 (converted)): > 100 µM
TGI (NCI-H23 [18]; read-out: pTGI (converted)): 5.75 µM
GI50 (HCC 2998 [19]; read-out: GI50): 2.82 µM
CC50 (HCC 2998 [19]; [23]): > 100 µM
TGI (HCC 2998 [19]; read-out: TGI): 6.8 µM
GI50 (HCC 2998 [19]; read-out: pGI50 (converted)): 2.82 µM
CC50 (HCC 2998 [19]; [24]): > 100 µM
TGI (HCC 2998 [19]; read-out: pTGI (converted)): 6.76 µM
GI50 (SF-268 [20]; read-out: GI50): 1.93 µM
CC50 (SF-268 [20]; [23]): > 100 µM
TGI (SF-268 [20]; read-out: TGI): 8.77 µM
GI50 (SF-268 [20]; read-out: pGI50 (converted)): 1.95 µM
CC50 (SF-268 [20]; [24]): > 100 µM
TGI (SF-268 [20]; read-out: pTGI (converted)): 8.71 µM
Activity (NCI-H322M): -10%
Activity (HT-29): -81%
GI50 (SK-MEL-2; read-out: GI50): 1.61 µM
CC50 (SK-MEL-2; [23]): 8.17 µM
TGI (SK-MEL-2; read-out: TGI): 3.62 µM
GI50 (SK-MEL-2; read-out: pGI50 (converted)): 1.62 µM
CC50 (SK-MEL-2; [24]): 8.13 µM
TGI (SK-MEL-2; read-out: pTGI (converted)): 3.63 µM
GI50 (DU-145 [21]; read-out: GI50): 1.8 µM
CC50 (DU-145 [21]; [23]): > 100 µM
TGI (DU-145 [21]; read-out: TGI): 4.27 µM
GI50 (DU-145 [21]; read-out: pGI50 (converted)): 1.82 µM
CC50 (DU-145 [21]; [24]): > 100 µM
TGI (DU-145 [21]; read-out: pTGI (converted)): 4.27 µM
GI50 (MDA-MB-231 [22]; read-out: GI50): 1.39 µM
CC50 (MDA-MB-231 [22]; [23]): 7.94 µM
TGI (MDA-MB-231 [22]; read-out: TGI): 3.33 µM
GI50 (MDA-MB-231 [22]; read-out: pGI50 (converted)): 1.38 µM
CC50 (MDA-MB-231 [22]; [24]): 7.94 µM
TGI (MDA-MB-231 [22]; read-out: pTGI (converted)): 3.31 µM
Activity (CCRF-CEM): 100%
Activity (RPMI-8226): 99%
